How the values were obtained:
[1] = test system: STC-1 cell line; type: cell-based, mouse; conditions: for IC50/EC50, mSTC-1 GLP1 Secretion (assay number 13): concentration response; for mSTC-1 GLP1 Secretion IC50/EC50: assay number 13
[2] = test system: NCI-H716 cells; experiment: cells; type: cell-based, Human; conditions: for IC50/EC50, hNCI-H716 GLP1 Secretion (assay number 12): concentration response; for hNCI-H716 GLP1 Secretion IC50/EC50: assay number 12
[3] = test system: ECFC/ADSC co-culture cell nuclei number
[4] = test system: endothelial tube formation in co-cultures of ECFCs and ADSCs treated with VEGF; experiment: cells; type: cell-based, human

Compound: NC[C@@H]1O[C@H](O[C@H]2[C@@H](O)[C@H](O[C@@H]3[C@@H](O)[C@H](N)C[C@H](N)[C@H]3O[C@H]3O[C@H](CN)[C@@H](O)[C@H](O)[C@H]3N)O[C@@H]2CO)[C@H](N)[C@@H](O)[C@@H]1O [NCGC00179612-03]
- IC50/EC50, mSTC-1 GLP1 Secretion (assay number 13) [1]: > 40 µM
- IC50/EC50, hNCI-H716 GLP1 Secretion (assay number 12) [2]: > 40 µM

Compound: C#C[C@]1(O)CC[C@H]2[C@@H]3CCC4=CCCC[C@@H]4[C@H]3CC[C@@]21C [NCGC00179676-03]
- mSTC-1 GLP1 Secretion IC50/EC50 [1]: > 40 µM
- hNCI-H716 GLP1 Secretion IC50/EC50 [2]: 27.5211 µM

Compound: C[C@@H](NCCCc1cccc(C(F)(F)F)c1)c1cccc2ccccc12.Cl [NCGC00181002-04]
- mSTC-1 GLP1 Secretion IC50/EC50 [1]: > 40 µM
- VEGF_ADSC\ECFC Angio Hoechst NucArea IC50/EC50 [3]: > 10 µM
- VEGF_ADSC\ECFC Angio CD31 TubeArea IC50/EC50 [4]: > 10 µM
- hNCI-H716 GLP1 Secretion IC50/EC50 [2]: 17.1869 µM

Compound: O=C(O)c1cc(N=Nc2ccc([O-])c(C(=O)O)c2)ccc1[O-].[Na+].[Na+] [NCGC00181008-02]
- mSTC-1 GLP1 Secretion IC50/EC50 [1]: 9.5352 µM
- hNCI-H716 GLP1 Secretion IC50/EC50 [2]: > 40 µM

Compound: CCCOC(C(=O)OC1CCN(C)CC1)(c1ccccc1)c1ccccc1.Cl [NCGC00181103-02]
- mSTC-1 GLP1 Secretion IC50/EC50 [1]: 23.8177 µM
- hNCI-H716 GLP1 Secretion IC50/EC50 [2]: > 40 µM

Compound: O=C(Nc1cccc2c(=O)cc(-c3nn[nH]n3)oc12)c1ccc(OCCCCc2ccccc2)cc1 [NCGC00181765-01]
- mSTC-1 GLP1 Secretion IC50/EC50 [1]: > 40 µM
- hNCI-H716 GLP1 Secretion IC50/EC50 [2]: > 40 µM

Compound: Cc1nnc2n1-c1sc(CCc3ccc(CC(C)C)cc3)cc1C(c1ccccc1Cl)=NC2C (stereo not drawn) [NCGC00183008-01]
- mSTC-1 GLP1 Secretion IC50/EC50 [1]: > 40 µM
- hNCI-H716 GLP1 Secretion IC50/EC50 [2]: 24.6779 µM

Compound: Cc1c(C)c2c(c(C)c1OC(=O)CCC(=O)OCCO)CC[C@@](C)(CCC[C@H](C)CCC[C@H](C)CCCC(C)C)O2 [NCGC00183103-01]
- mSTC-1 GLP1 Secretion IC50/EC50 [1]: > 40 µM
- hNCI-H716 GLP1 Secretion IC50/EC50 [2]: > 40 µM

Compound: COc1cc(Nc2c(C#N)cnc3cc(OCCCN4CCN(C)CC4)c(OC)cc23)c(Cl)cc1Cl [NCGC00241107-02]
- mSTC-1 GLP1 Secretion IC50/EC50 [1]: > 40 µM
- hNCI-H716 GLP1 Secretion IC50/EC50 [2]: 25.1177 µM

Compound: O=C(Nc1ccc(S(=O)(=O)N2CCOCC2)cc1)c1cc(Cl)ccc1NS(=O)(=O)c1ccc(Cl)s1 [NCGC00249417-02]
- mSTC-1 GLP1 Secretion IC50/EC50 [1]: > 40 µM
- VEGF_ADSC\ECFC Angio Hoechst NucArea IC50/EC50 [3]: > 10 µM
- VEGF_ADSC\ECFC Angio CD31 TubeArea IC50/EC50 [4]: > 10 µM
- hNCI-H716 GLP1 Secretion IC50/EC50 [2]: > 40 µM

Compound: Nc1ccc(Cl)cc1C(=O)c1ccccc1F [NCGC00253725-01]
- mSTC-1 GLP1 Secretion IC50/EC50 [1]: > 40 µM
- hNCI-H716 GLP1 Secretion IC50/EC50 [2]: > 40 µM

Compound: O=c1[nH]sc2cc(Cl)ccc12 [NCGC00262908-01]
- IC50/EC50, mSTC-1 GLP1 Secretion (assay number 13) [1]: > 40 µM
- IC50/EC50, VEGF_ADSC\ECFC Angio Hoechst NucArea (assay number 3) [3]: 9.427 µM
- IC50/EC50, VEGF_ADSC\ECFC Angio CD31 TubeArea (assay number 2) [4]: > 10 µM
- IC50/EC50, hNCI-H716 GLP1 Secretion (assay number 12) [2]: > 40 µM

Compound: Cl.Nc1cc(C(F)(F)F)ccc1S [NCGC00262926-01]
- mSTC-1 GLP1 Secretion IC50/EC50 [1]: 1.1561 µM
- VEGF_ADSC\ECFC Angio Hoechst NucArea IC50/EC50 [3]: > 10 µM
- VEGF_ADSC\ECFC Angio CD31 TubeArea IC50/EC50 [4]: > 10 µM
- hNCI-H716 GLP1 Secretion IC50/EC50 [2]: 15.3214 µM

Compound: COc1ccc(OC(=O)N(CC(=O)O)Cc2ccc(OCCc3nc(-c4ccccc4)oc3C)cc2)cc1 [NCGC00262954-01]
- mSTC-1 GLP1 Secretion IC50/EC50 [1]: 1.5351 µM
- hNCI-H716 GLP1 Secretion IC50/EC50 [2]: 36.168 µM

Compound: [Cl][Pt+2][Cl].[NH2-].[NH2-] [NCGC00263537-01]
- IC50/EC50, mSTC-1 GLP1 Secretion (assay number 13) [1]: > 40 µM
- IC50/EC50, hNCI-H716 GLP1 Secretion (assay number 12) [2]: > 40 µM

Compound: CN(C)[C@@H]1C(=O)C(C(=O)NCN2CCCC2)=C(O)[C@@]2(O)C(=O)C3=C(O)c4c(O)cccc4[C@@](C)(O)[C@H]3C[C@@H]12 [NCGC00263906-02]
- mSTC-1 GLP1 Secretion IC50/EC50 [1]: > 40 µM
- hNCI-H716 GLP1 Secretion IC50/EC50 [2]: > 40 µM

Compound: propagermanium [reference compound]
- activity in STC-1 GLP-1 secretion assay (in words) [1]: potent actives
- activity in NCI-H716 GLP-1 secretion assay (in words) [2]: potent actives

Reference: article PMC4503722, “Novel Phenotypic Outcomes Identified for a Public Collection of Approved Drugs from a Publicly Accessible Panel of Assays” (PLoS ONE, 2015)
